Reference: US5674906A, “Stilbene compounds and pharmaceutical compositions containing them” (Ajinomoto Co., Inc., priority 1995, dated 1997)
Converted amounts (≈) assume the structure as drawn. Counter-ions that a name gives are not always drawn. Like-named read-outs stand apart in the source and are kept apart here.

How the values were obtained:
Colon 26 = assay: Test for the pharmaceutical effect on mice: tumor growth inhibition of subcutaneously implanted Colon 26; conditions: Mus musculus, Colon 26, iv, 504 h, read-out: in vivo I.R. (tumor growth inhibition rate)
Protocol: Test for the Pharmaceutical Effect on Mice:
Colon 26 which had been cloned subcutaneously in mice was cut with scissors, and implanted subcutaneously in mice by means of a trocar. One week later, the tumors were measured using calipers, and the volumes of the tumors were calculated. The mice were grouped (each group consisting of 3 mice). The test compound was dissolved with dimethylsulfoxide and diluted with 5% by volume Tween 80/saline. A 0.2 ml of the solution was injected intravenously once a day on Day 7, Day 11 and Day 15 after the implantation. On Day 21 after the implantation, the volumes of the tumors were measured. The volume of the tumor and the tumor growth inhibition rate (I.R.) were calculated using the following expressions. [formula]
^a) Administered intravenously once a day on day 7, day 11 and day 15

[1] = Minimum dose which shows death immediately after injection (toxic dose); type: in vivo, mice; conditions: acute death immediately after injection
[2] = test system: Mouse P388 leukemia cells; assay: Evaluation of cytotoxicity: growth inhibition of mouse P388 leukemia cells (MTT method); type: cell-based; conditions: 48 h, 37° C., 2 days, read-out: in vitro IC50 (50% growth inhibitory concentration)
Protocol: Evaluation of Cytotoxicity:
Mouse P388 leukemia cells were used as cancer cells, and a RPMI-1640 medium containing 5-μM 2-mercaptoethanol and 10% fetal bovine serum was used in the incubation. The above-mentioned cells were inoculated on a 96-well microplate in an amount of 1×10^4 cells/50 μl/well, and an aqueous solution of a test compound (4 μg/ml) was added thereto in an amount of 25 μl/well. The mixture was incubated at 37° C. for 2 days. Then, the number of live cells were counted using the MTT method, and a dose-response curve was then prepared. A 50% growth inhibitory concentration (IC50) given for the test compound was calculated according to the dose-response curve.

[3] = 10 mg/kg, intravenously once a day on day 7, day 11 and day 15, tumor volume on Day 21
[4] = 40 mg/kg, intravenously once a day on day 7, day 11 and day 15, tumor volume on Day 21
[5] = 80 mg/kg, intravenously once a day on day 7, day 11 and day 15, tumor volume on Day 21

| SMILES | Toxic Dose (minimum dose which show death immediately after injection) [1] [mg/kg] | IC50 [2] [ng/mL] | other results |
| --- | --- | --- | --- |
| COc1ccc(/C=C(/C#N)c2cc(OC)c(OC)c(OC)c2)cc1NC(=O)[C@H](C)N [(E)-3-(3-Amino-4-methoxyphenyl)-2-(3,4,5-trimethoxyphenyl)-prop-2-enenitrile-L-alanineamide Hydrochloride] | 80 | 0.5 | inhibition in vivo at 20 mg/kg (Colon 26; 20 mg/kg, intravenously once a day on day 7, day 11 and day 15, tumor volume on Day 21): 71% |
| COc1ccc(/C=C(/C#N)c2cc(OC)c(OC)c(OC)c2)cc1NC(=O)[C@@H](N)CC(=O)O [(E)-3-(3-Amino-4-methoxyphenyl)-2-(3,4,5-trimethoxyphenyl)-prop-2-enenitrile-L-aspartylamide Hydrochloride] | 40 | 2 | inhibition in vivo at 10 mg/kg (Colon 26; [3]): 1.7% |
| COc1ccc(/C=C(/C#N)c2cc(OC)c(OC)c(OC)c2)cc1NC(=O)[C@@H](N)CCC(=O)O [(E)-3-(3-Amino-4-methoxyphenyl)-2-(3,4,5-trimethoxyphenyl)-prop-2-enenitrile-L-glutamylamide Hydrochloride] | 80 | 4 | inhibition in vivo at 40 mg/kg (Colon 26; [4]): 77% |
| COc1ccc(/C=C(/C#N)c2cc(OC)c(OC)c(OC)c2)cc1NC(=O)[C@@H](N)CCCCN [(E)-3-(3-Amino-4-methoxyphenyl)-2-(3,4,5-trimethoxyphenyl)-prop-2-enenitrile-L-lysineamide Dihydrochloride] | 20 | 13 | inhibition in vivo at 10 mg/kg (Colon 26; [3]): 33.8% |
| COc1ccc(/C=C(/C#N)c2cc(OC)c(OC)c(OC)c2)cc1NC(=O)[C@@H](N)CCCN [(E)-3-(3-Amino-4-methoxyphenyl)-2-(3,4,5-trimethoxyphenyl)-prop-2-enenitrile-L-ornithineamide Dihydrochloride] |  | 50 | inhibition in vivo at 10 mg/kg (Colon 26): 48.9% |
| COc1ccc(/C=C(/C#N)c2cc(OC)c(OC)c(OC)c2)cc1NC(=O)[C@@H](N)Cc1ccccc1 [(E)-3-(3-Amino-4-methoxyphenyl)-2-(3,4,5-trimethoxyphenyl)-prop-2-enenitrile-L-phenylalanineamide Hydrochloride] | 80 | 5 | inhibition in vivo at 40 mg/kg (Colon 26; [4]): 76.7% |
| COc1ccc(/C=C(/C#N)c2cc(OC)c(OC)c(OC)c2)cc1NC(=O)[C@@H]1CCCN1 [(E)-3-(3-Amino-4-methoxyphenyl)-2-(3,4,5-trimethoxyphenyl)-prop-2-enenitrile-L-prolineamide Hydrochloride] | 40 | 200 | inhibition in vivo at 40 mg/kg (Colon 26; [4]): 68.9% |
| COc1ccc(/C=C(/C#N)c2cc(OC)c(OC)c(OC)c2)cc1NC(=O)[C@@H](N)CO [(E)-3-(3-Amino-4-methoxyphenyl)-2-(3,4,5-trimethoxyphenyl)-prop-2-enenitrile-L-serineamide Hydrochloride] |  | 2 | inhibition in vivo at 80 mg/kg (Colon 26; [5]): 75% |
| COc1ccc(/C=C(/C#N)c2cc(OC)c(OC)c(OC)c2)cc1NC(=O)[C@@H](N)[C@@H](C)O [(E)-3-(3-Amino-4-methoxyphenyl)-2-(3,4,5-trimethoxyphenyl)-prop-2-enenitrile-L-threonineamide Hydrochloride] |  | 6 | inhibition in vivo at 40 mg/kg (Colon 26; [4]): 67% |
| COc1ccc(/C=C(/C#N)c2cc(OC)c(OC)c(OC)c2)cc1NC(=O)CN [(E)-3-(3-Amino-4-methoxyphenyl)-2-(3,4,5-trimethoxyphenyl)-prop-2-enenitrile-glycineamide Hydrochloride] | 40 | 3 | inhibition in vivo at 20 mg/kg (Colon 26): 85.7% |
| COc1ccc(/C=C\c2cc(OC)c(OC)c(OC)c2)cc1NC(=O)[C@H](C)N [(Z)-1-(3-Amino-4-methoxyphenyl)-2-(3,4,5-trimethoxyphenyl)-ethene-L-alanineamide] | 80 | 2 (≈ 5.18 nM) | inhibition in vivo at 40 mg/kg (Colon 26): 51.9% |
| COc1ccc(/C=C\c2cc(OC)c(OC)c(OC)c2)cc1NC(=O)[C@@H](N)CC(C)C [(Z)-1-(3-Amino-4-methoxyphenyl)-2-(3,4,5-trimethoxyphenyl)-ethene-L-leucineamide] | 40 | 6 (≈ 14 nM) | inhibition in vivo at 40 mg/kg (Colon 26): 50.9% |
| COc1ccc(/C=C\c2cc(OC)c(OC)c(OC)c2)cc1NC(=O)[C@@H](N)CO [(Z)-1-(3-Amino-4-methoxyphenyl)-2-(3,4,5-trimethoxyphenyl)-ethene-L-serineamide] |  | 4 (≈ 9.94 nM) | inhibition in vivo at 80 mg/kg (Colon 26; [5]): 72.9% |
| COc1ccc(/C=C\c2cc(OC)c(OC)c(OC)c2)cc1NC(=O)[C@@H](N)[C@@H](C)O [(Z)-1-(3-Amino-4-methoxyphenyl)-2-(3,4,5-trimethoxyphenyl)-ethene-L-threonineamide] |  | 6 (≈ 14.4 nM) | inhibition in vivo at 80 mg/kg (Colon 26): 62.2% |
| COc1ccc(/C=C\c2cc(OC)c(OC)c(OC)c2)cc1NC(=O)CN [(Z)-1-(3-Amino-4-methoxyphenyl)-2-(3,4,5-trimethoxyphenyl)-ethene-glycineamide] | 80 | 2 (≈ 5.37 nM) | inhibition in vivo at 40 mg/kg (Colon 26): 33.3% |
